Results published in ChEMBL document CHEMBL1143226, “Potent inhibitors of the hedgehog signaling pathway” (J Med Chem, 2008).

Assay: Antagonist activity at Hedgehog receptor expressed in 10t1/2 cells by Gli-luciferase reporter gene assay
Type: functional, cell-based

Compound: CC(NC(=O)Nc1cccc(C(F)(F)F)c1)c1nc2ccccc2c(=O)n1-c1ccc(F)cc1 (stereo not given)
- IC50: 4.7 µM

Compound: CC(C)n1c(CNC(=O)Nc2cccc(C(F)(F)F)c2)nc2ccccc2c1=O
- IC50: 4.3 µM

Compound: CCc1nc2ccccc2c(=O)n1-c1ccc(F)cc1
- IC50: > 10 µM

Compound: O=C(NCc1nc2ccccc2c(=O)n1-c1ccc(F)cc1)Nc1ccc(Cl)c(C(F)(F)F)c1
- IC50: 0.07 µM

Compound: O=C(NCc1nc2ccccc2c(=O)n1-c1ccc(F)cc1)Nc1cccc(C(F)(F)F)c1
- IC50: 0.7 µM

Compound: COc1cc(NC(=O)NCc2nc3ccccc3c(=O)n2-c2ccc(F)cc2)cc(C(F)(F)F)c1
- IC50: 0.25 µM

Compound: CN(Cc1nc2ccccc2c(=O)[nH]1)C(=O)Nc1cccc(C(F)(F)F)c1
- IC50: > 10 µM

Compound: CC(c1nc2ccccc2c(=O)n1-c1ccc(F)cc1)N(C)C(=O)Nc1cccc(C(F)(F)F)c1 (stereo not given)
- IC50: 1.4 µM

Compound: O=C(NCc1nc2ccccc2c(=O)n1-c1ccc(F)cc1)Nc1cc(Cl)nc(Cl)c1
- IC50: 0.11 µM

Compound: CNC(C)c1nc2ccccc2c(=O)n1-c1ccc(F)cc1 (stereo not given)
- IC50: > 10 µM
